Data published in patent US6716574B2, “Osp-C derived peptide fragments” (Dako A/S, priority 1996, dated 2004).
Square brackets hold non-standard residues; d marks the D form. Thz = O=C(O)[C@@H]1CSCN1

Assays:
[1] = tested on: polyclonal anti-OspC antibodies (IgM) in sera from LB patients; assay: Inhibition of binding of anti-OspC antibodies in patient sera to rOspC-coated ELISA plates; set-up: species or system human; conditions: for number of sera in which binding to rOspCfl was inhibited: of 5 antisera
Text: Therefore, a set of experiments have been carried out where the ability have been tested of a number of analogues of the C-terminus of SEQ ID NO: 3 to inhibit the immune reactivity between rOspCfl and selected antisera in an ELISA. More specifically, the ability of the various analogues to inhibit the binding of polyclonal anti-OspC antibodies in solution was examined in sera from LB patients to rOspC-coated ELISA plates.
The immunoreactivity to OspC was specified by using six randomly selected NB sera with an OD>1.5 in the IgM rOspC ELISA. The respective serum dilutions were determined, based on a serum dilution curve obtained in the IgM rOspC ELISA, for each of the six sera. The highest dilution, which still achieved the maximal OD value was used. 5 sera were diluted 1:200, and one serum 1:1000. The sera were diluted in the buffer used for the IgM rOspC ELISAs.
The affinity of the OspC derivatives was measured by incubation of each of the six sera with the respective OspC derivatives at 10 different dilutions (covering a two-fold range) overnight at 4° C. The rOspC ELISA was then performed as described previously, in order to determine the effect of the IgM binding to OspC.

[2] = tested on: IgM antibodies to OspC in sera from patients; assay: Indirect ELISA for IgM antibodies to full-length and truncated recombinant OspC (rOspC ELISA); type: binding, human; conditions: for immunoassay results compared with rOspCfl from B. garinii: sera of Example 2
Description: Indirect ELISA for IgM Antibodies to Full-length and Truncated Recombinant OspC (rOspC ELISA)
Flat-bottom microdilution plates (Maxisorb; Nunc, Roskilde, Denmark) were coated with 100 μl of rOspC diluted in 0.05 M bicarbonate pH 9.6 for 1 hour at 20° C. on a rocker platform and thereafter overnight at 4° C. The optimum coating concentration was defined as the antigen dilution resulting in the highest ratio of the optical density (OD) between a positive and a negative control serum (P/N ratio). The plates were washed four times à one minute with PBS containing 0.5 M NaCL, and 0.1% (vol/vol) Tween 20 (pH 7.2) and unspecific protein binding was blocked with 100 μl 3% (wt/vol) milk powder in PBS for 1 hour. The plates were washed four times à one minute with PBS containing 0.5 M NaCL, and 0.1% (vol/vol) Tween 20 (pH 7.2). 100 μl of serum diluted 1:200 in PBS containing 0.1% (vol/vol) Tween 20, 0.02% NaN3 and 1% (wt/vol) milk powder was added to the wells and incubated for 2 h at 20° C. The plates were washed four times à one minute with PBS containing 0.5 M NaCL, and 0.1% (vol/vol) Tween 20 (pH 7.2) and 100 μl peroxidase conjugated rabbit anti-human immunoglobulin M (IgM) (Dakopats, Copenhagen, Denmark, code P-215) diluted 1:1000 in PBS pH 7.4 with 0.05% (vol/vol) Tween 20 and 1% (wt/vol) milk powder. After the incubation for 1 h at 20° C. the plates were washed four times à one minute with PBS containing 0.5 M NaCL, and 0.1% (vol/vol) Tween 20 (pH 7.2) and 200 μl of the substrate o-phenylenediamine (0.41 mg/ml; Sigma) in citrate buffer (pH 5) with 0.04% (vol/vol) H2O2) was added to each well. After 15 minutes protected from light, the enzymatic reaction was stopped by the addition of 50 μl of 3M H2SO4. The optical density (OD) at 492 nm was read spectrophotometrically (Immuno Reader, Easy reader EAR 400 AC—SLT Labinstruments, AUSTRIA). Samples were tested in duplicate and retested, if the two OD values differed more than 10% from the mean. To eliminate plate-to-plate and day-to-day variations, a reference serum pool based on seven western blot positive sera were included on every plate for construction of a standard dilution curve with a two fold dilution ranging from 1:200 to 1:6400. The OD value of every sample was adjusted to this standard curve. Positive and negative control sera were included on every plate. The positive control sera were diluted 1:200, 1:400 and 1:800 on every plate to check for parallelism between the standard reference curve and the dilution curve of the positive control sera.
The diagnostic cutoff OD was adjusted to be 98% specific for an IgM assay on the basis of serum samples from 100 healthy danish blood donors, and was 0.230 for the IgM assay.
In a preliminary setup, rOspCt was used in the above-described rOspC ELISA. Sera from 47 patients with EM, 50 with NB, 30 with ACA and 29 with syphilis were tested against rOspCt.
The capability of an immunological agent according to the present invention to react with sera from patients in various stages of Lyme borreliosis was evaluated against that of recombinant OspC derived from B. garinii and against conventional flagellum ELISAs (performed as described in Hansen K. et al. (1991) and Hansen K. et al. (1988)). These flagellum assays (testing for IgM and IgG antibodies to native B. burgdorferi flagellum) are commercially available, a μ-capture ELISA (DAKO, Denmark code K006), and an indirect IgG ELISA (DAKO, Denmark code K416). Both assays use flagella purified from strain DK1 belonging to the genospecies of B. afzelii. The ELISAs were performed according to the instructions of the manufacturer, and the results were expressed as optical density (OD) values. In both assays the diagnostic cut-off level was adjusted to a specificity of 98% based on the examination of 100 blood donors.

With “NH2-PVVPESPKKP-COOH (H-PVVPESPKKP-OH) [SEQ ID NO: 37]” the inhibition ([1]; Serum 1) was 70% inhibition, the inhibition ([1]; Serum 2) was 100% inhibition and the inhibition ([1]; Serum 3) was 100% inhibition. The inhibition ([1]; Serum 4) was 0% inhibition and the inhibition ([1]; Serum 5) was 40% inhibition.

With “NH2-PVVAEAPKKP-COOH (H-PVVAEAPKKP-OH) [SEQ ID NO: 27]” the “ability to inhibit binding between rOspCfl and the 5 antisera” value [1] was “capable of inhibiting binding”.

For “NH2-PVVAES*KKP-COOH (H-PVVAES[Thz]KKP-OH; SMILES CC(C)[C@H](NC(=O)[C@@H]1CCCN1)C(=O)N[C@H](C(=O)N[C@@H](C)C(=O)N[C@@H](CCC(=O)O)C(=O)N[C@@H](CO)C(=O)N1CSC[C@H]1C(=O)N[C@@H](CCCCN)C(=O)N[C@@H](CCCCN)C(=O)N1CCC[C@H]1C(=O)O)C(C)C) [* designates L-thiazolidine-4-carboxylic acid]”, the “number of sera in which binding to rOspCfl was inhibited” value (“number … to rOspCfl was inhibited” for short) [1] was 5 sera.

For “NH2-PVAAESPKKP-COOH (H-PVAAESPKKP-OH) [SEQ ID NO: 30]”, the “ability to inhibit binding between rOspCfl and the 5 antisera” value [1] was “capable of inhibiting binding”.

In the case of “NH2-PVVAESPKKP-CONH2 (H-PVVAESPKKP-NH2) [SEQ ID NO: 33]”, the “ability to inhibit binding between rOspCfl and the 5 antisera” value [1] is reported as “incapable of inhibiting binding”.

Molecule “NH2-PPPPESPKKP-COOH (H-PPPPESPKKP-OH) [SEQ ID NO: 39]” has an inhibition ([1]; Serum 1) of 70% inhibition, an inhibition ([1]; Serum 2) of 100% inhibition and an inhibition ([1]; Serum 3) of 100% inhibition. It also gave an inhibition ([1]; Serum 4) of 0% inhibition and an inhibition ([1]; Serum 5) of 40% inhibition.

Molecule “NH2-PVVAESPKNP-COOH (H-PVVAESPKNP-OH) [SEQ ID NO: 38]” has an inhibition ([1]; Serum 1) of 50% inhibition, an inhibition ([1]; Serum 2) of 0% inhibition and an inhibition ([1]; Serum 3) of 0% inhibition. For the same molecule, the inhibition ([1]; Serum 4) was 0% inhibition and the inhibition ([1]; Serum 5) was 0% inhibition.

With “9-arg: variant of SEQ ID NO: 1 in which 9-lys was substituted with 9-arg (PVVAESPKRP; FRAGMENT TYPE C-terminal; STRAIN DK6, INDIVIDUAL ISOLATE BN1068; listed as Borrelia garinii)” the “ability to inhibit binding between rOspCfl and the 5 antisera” value [1] was “no effect”.

For “NH2-PVVAASPKKP-COOH (H-PVVAASPKKP-OH) [SEQ ID NO: 28]”, the “ability to inhibit binding between rOspCfl and the 5 antisera” value [1] was “capable of inhibiting binding”.

With “NH2-PVVAESPKAP-COOH (H-PVVAESPKAP-OH) [SEQ ID NO: 24]” the “number … to rOspCfl was inhibited” value [1] was 1 sera.

“NH2-PVVAESPKKA-COOH (H-PVVAESPKKA-OH) [SEQ ID NO: 23]” was tested, and the “number … to rOspCfl was inhibited” value [1] was 0 sera.

In the case of “NH2-PVVAESAKKP-COOH (H-PVVAESAKKP-OH) [SEQ ID NO: 26]”, the “number … to rOspCfl was inhibited” value [1] is reported as 1 sera.

With “NH2-PAVAESPKKP-COOH (H-PAVAESPKKP-OH) [SEQ ID NO: 31]” the “ability to inhibit binding between rOspCfl and the 5 antisera” value [1] was “capable of inhibiting binding”.

With “NH2-PVVAESPAKP-COOH (H-PVVAESPAKP-OH) [SEQ ID NO: 25]” the “number … to rOspCfl was inhibited” value [1] was 3 sera.

In the case of “NH2-AVVAESPKKP-COOH (H-AVVAESPKKP-OH) [SEQ ID NO: 32]”, the “ability to inhibit binding between rOspCfl and the 5 antisera” value [1] is reported as “capable of inhibiting binding”.

“NH2-PVVFESPKKP-COOH (H-PVVFESPKKP-OH) [SEQ ID NO: 29]” was tested, and the “ability to inhibit binding between rOspCfl and the 5 antisera” value [1] was “capable of inhibiting binding”.

With “NH2-PKKP-COOH (H-PKKP-OH) [SEQ ID NO: 22]” the “patient sera in which binding between rOspCfl and antibodies was inhibited” value ([1]; six NB sera with OD>1.5 in the IgM rOspC ELISA) was “one single serum”.

B1: B. afzelii derived rOspCt: recombinant B. afzelii DK26 OspC truncate lacking the seven C-terminal amino acids (protein)
chain: CNNSGKGGDSASTNPADESAKGPNLTEISKKITDSNAFVLAVKEVETLVLSIDELAKKAIGQKIDNNNGLAALNNQNGSLLAGAYAISTLITEKLSKLKNLEELKTEIAKAKKCSEEFTNKLKSGHADLGKQDATDDHAKAAILKTHATTDKGAKEFKDLFESVEGLLKAAQVALTNSVKELTSPVV
modifications: left off: small tags and cut ends
notes: recombinant B. afzelii DK26 OspC truncate lacking the seven C-terminal amino acids
With B1 the “Positive rOspCt ELISA results” value ([2]; serum panel 1, IgM) was “no positives”.

B2: rOspCfl from B. burgdorferi sensu stricto: full-length recombinant OspC from strain DK7 of Borrelia burgdorferi sensu stricto (SEQ ID NO: 5) (protein)
chain: MKKNTLSAILMTLFLFISCNNSGKDGNTSANSADESVKGPNLTEISKKITDSNAVLLAVKEVEALLSSIDELAKAIGKKIKNDGSLGDEANHNESLLAGAYTISTLITQKLSKLNGSEGLKEKIAAAKKCSEEFSTKLKDNHAQLGIQGVTDENAKKAILKANAAGKDKGVEELEKLSGSLESLSKAAKEMLANSVKELTSPVVVESPKKP
modifications: Borrelia burgdorferi sensu stricto
With B2 the “immunoassay results compared with rOspCfl from B. garinii” value [2] was “almost identical picture”.

B3: rOspCt: recombinant B. garinii OspC truncate which lacks the 7 carboxyterminal amino acids (protein)
chain: CNNSGGDSASTNPDESAKGPNLTVISKKITDSNAFLLAVKEVEALLSSIDELSKAIGKKIKNDGTLDNEANRNESLIAGAYEISKLITQKLSVLNSEELKEKIKEAKDCSEKFTTKLKDSHAELGIQSVQDDNAKKAILKTHGTKDKGAKELEELFKSLESLSKAAQAALTNSVKELTNPVVAESPKKP
modifications: left off: small tags and cut ends
notes: recombinant B. garinii OspC truncate which lacks the 7 carboxyterminal amino acids
In the case of B3, the “Positive rOspCt ELISA results” value ([2]; ACA sera (N = 30), IgM, B. garinii rOspCt) is reported as “n = 0 (0.00%)”, the “Positive rOspCt ELISA results” value ([2]; EM and NB sera (n = 97), IgM, B. garinii rOspCt) is reported as “n = 4 (4.12%)” and the “Positive rOspCt ELISA results” value ([2]; EM sera (n = 47), serum panel 1, IgM, B. garinii rOspCt, 98% specific cutoff) is reported as “n = 1 (2.12%)”. For the same molecule, the “Positive rOspCt ELISA results” value ([2]; NB sera (n = 50), serum panel 1, IgM, B. garinii rOspCt) was “n = 3 (6.00%)” and the “Positive rOspCt ELISA results” value ([2]; Syphilis control sera (n = 29), IgM, B. garinii rOspCt) was “n = 5 (17.24%)”.

B4: rOspCfl from B. afzelii: full-length recombinant OspC from strain DK26 of Borrelia afzelii (SEQ ID NO: 7) (protein, listed as Borrelia afzelii)
chain: MKKNTLSAILMTLFLFISCNNSGKGGDSASTNPADESAKGPNLTEISKKITDSNAFVLAVKEVETLVLSIDELAKKAIGQKIDNNNGLAALNNQNGSLLAGAYAISTLITEKLSKLKNLEELKTEIAKAKKCSEEFTNKLKSGHADLGKQDATDDHAKAAILKTHATTDKGAKEFKDLFESVEGLLKAAQVALTNSVKELTSPVVAESPKKP
In the case of B4, the “immunoassay results compared with rOspCfl from B. garinii” value [2] is reported as “almost identical picture”.
